One data set relates to NF-κB p65. Nature of the data set: NF-κB p65 DNA-binding activity (Active Motif TransAM) in nuclear extracts. The note with it: BCWM.1 and MWCL.1; everolimus 1 nM or bortezomib 5 nM, 4 hours; TNF-α 10 ng/mL. The class given is cell-based, human. The source says:
NF-κB activity was investigated using the Active Motif TransAM kits, a DNA-binding enzyme-linked immunosorbent assay (ELISA)-based assay (Active Motif North America, Carlsbad, Calif.).

Data set [1] concerns BCWM1 cells. Nature of the data set: [H]3 thymidine uptake cell proliferation assay. The class given is cell-based, human. The note with it: 20 μM, 48 hours, vs scramble control. The procedure: (§1) To assess the uptake of antimiR-155 into BCWM1 or MEC1 cells, a 5′ FAM-labeled antimiR-155 was used and the antimiR was added directly to the cell suspension without any transfection reagent. The uptake of FAM-labeled antimiR-155 into BCWM1 cells was higher than 90% as judged by flow cytometry (data not shown), which indicates efficient delivery of the 8-mer antimiR into tumor cells. To further examine the functional effect of antimiR-155 on BCWM1 or MEC1, cell survival and cell proliferation was measured by MTT and [H]^3 thymidine uptake assays, respectively. […] Thus, miR-155 inhibition regulates cell proliferation, but not cell apoptosis.

For data set [2], the system named is MEC1 cells. Nature of the data set: [H]3 thymidine uptake cell proliferation assay. To be noted: 20 μM, 48 hours, vs scramble control. The class given is cell-based, human. The procedure: as §1
Data set [3] relates to BCWM1 cells. Nature of the data set: MTT cell survival / cytotoxicity assay. The class given is cell-based, human. To be noted: 20 μM, 48 hours, vs scramble control. As to the method:
as §1

Data set [4] deals with MEC1 cells. The data set can be described thus: MTT cell survival / cytotoxicity assay. The class given is cell-based, human. The note with it: 20 μM, 48 hours, vs scramble control. The procedure:
as §1

Data set [5] concerns miR-155. Nature of the data set: Gene expression profiling and qRT-PCR of miR-155 target mRNAs in BCWM1 cells. The note with it: vs scramble control. The class given is cell-based, human. The procedure: Total RNA from BCWM1 cells treated with antimiR-155 or LNA scramble control oligonucleotide, respectively, for 48 hours, were isolated using RNeasy kit (Qiagen) as described by the manufacturer, and hybridized on an Affymetrix U133A 2.0 array chip (Affymetrix, Santa Clara, Calif.). GEP data were analyzed using dChip software (biosunl.harvard.edu/complab/dchip/). Candidate target mRNAs for miR-155 were identified by using the algorithms TargetScan (genes.mit.edu/targetscan/), PicTar (pictar.bio.nyu.edu/) and RNAhybrid (bibiserv.techfak.uni-bielefeld.de/rnahybrid/).
(§2) Total RNA of cells was isolated with the RNeasy kit (Qiagen). cDNA was synthesized using the SuperScript cDNA synthesis kit (Invitrogen) and qRT-PCR reactions were performed using SYBR master mix (SA Bioscience) with designated primers relative to 18S expression by StepOnePlus™ Real-Time PCR System (Applied Biosystem) in triplicates. TaqMan® microRNA Assays kits (Applied Biosystem) were used for quantifying hsa-miR-155 levels relative to RNU6B expression.
To identify new direct miR-155 targets in B cell lymphomas, gene expression profiling (GEP) was performed on BCWM.1 cells after treatment with antimiR-155 or scramble control for 24 or 48 hours. […]
On the technique in general: In qPCR the cycle at which signal appears reflects the starting amount.

Data set [6] deals with miR-155. The data set can be described thus: qRT-PCR of miR-155 target genes in primary WM CD19+ cells. The class given is cell-based, human. The note with it: 20 μM, 48 hours, vs scramble control. The procedure:
as §2
(§3) The mRNA levels of the six miR-155 target genes, SMAD5, SOCS1, CEBPβ, MAFB, SHANK2 and SH3PXD2A, […] were next determined by qRT-PCR from primary WM CD19^+ cells, and primary CLL cells, normal donor blood CD19^+ cells, BCWM1 and MEC1 cells.

Data set [7] has as its system miR-155. The data set can be described thus: qRT-PCR of miR-155 target genes in primary CLL cells. To be noted: 20 μM, 48 hours, vs scramble control. The class given is cell-based, human. As to the method: as §2, §3
The next data set concerns mCherry-Luc+-BCWM1 cells. The data set can be described thus: Xenograft mouse model of WM, bioluminescent imaging of tumor burden. The class given is in vivo, SCID mice. As to the method: (§4) Immediately after tail vein injection of mCherry-Luc+-BCWM1 cells (3×10^6/mouse) in SCID mice, the mice (6 mice/group) were treated with a single intravenous tail vein injection of 25 mg/kg with either antimiR-155 or LNA scramble control, followed by weekly maintenance doses of 5 mg/kg antimiR-155 or LNA scramble control until the mice were sacrificed. Mice were injected with 75 mg/kg luciferin (Caliper Life Sciences, Hopkinton, Mass.), followed by whole-body real-time bioluminescence imaging (Xenogen IVIS imaging system, Caliper Life Sciences, Hopkinton, Mass.) performed at Day 0, Day 14, and Day 19. Mice were sacrificed by inhalation of CO2. RNA was extracted from CD19+ cells isolated from one mouse femur by using CD19+ microbead selection. The other femur, liver, and spleen were fixed in formaldehyde.
To assess the anti-tumor activity of antimiR-155 in vivo, a xenograft mouse model of WM was used. Six SCID mice per group were engrafted with 3×10^6 mCherry-Luc^+-BCWM1 cells, after which mice were injected with a loading dose of 25 mg/kg antimiR-155 or scramble control, which was followed by weekly maintenance doses of 5 mg/kg of each respective compound until the mice were sacrificed. Tumor burden was monitored using bioluminescent imaging (BLI) at Days 0, 14, and 19 after injection (FIG. 7A).

For data set [8], the system named is miR-155. The data set can be described thus: miR-155 target de-repression in xenograft mice (qRT-PCR of bone marrow CD19+ cells, immunostaining). The class given is in vivo, SCID mice. As to the method: as §4
Moreover, immunostaining confirmed de-repression of the MAFB and CEBPβ targets at the protein level in the bone marrow and spleen upon treatment with the antimiR-155 (FIG. 7D).

The test system of data set [9] is BCWM1 cells. Nature of the data set: Co-culture with primary WM bone marrow stromal cells, proliferation. The class given is cell-based, human. To be noted: 20 μM, 48 hours. As to the method:
(§5) To examine the effect of antimiR-155 on tumor progression in the context of the microenvironment, the miR-155 levels were first quantified in bone marrow stromal cells (mesenchymal stem cells) from WM patients in comparison to normal healthy donors. […] Consequently, 20 μM antimiR-155 or scramble control was added to a co-culture of BCWM1 and primary WM bone marrow stromal cells or MEC1 cells and primary WM bone marrow stromal cells, and then assessed for cell proliferation by MTT and [H]^3 thymidine uptake assays, respectively, after 48-hours. […] No effect on cell cytotoxicity on stromal cells was observed.

Data set [10] has as its system MEC1 cells. The description is as above. The note with it: 20 μM, 48 hours. The class given is cell-based, human. As to the method:
as §5

The subject of data set [11] is primary WM bone marrow stromal cells. Nature of the data set: Cytotoxicity on stromal cells in co-culture. To be noted: 20 μM, 48 hours. The class given is cell-based, human. The procedure: as §5
The test system of data set [12] is BCWM1 cells. Nature of the data set: Co-culture with stromal cells from wild-type or miR-155−/− mice, [H]3 thymidine uptake. The class given is cell-based, human. The note with it: 20 μM, 48 hours, vs scramble control. The procedure: (§6) To further clarify whether antimiR-155 can affect both tumor cells and stromal cells, BCWM1 or MEC1 cells were treated with antimiR-155 or scramble control, followed by co-culturing of the treated cells with bone marrow stromal cells from wild-type mice in comparison with stromal cells from miR-155^−/− mice. Cell survival and cell proliferation were assessed by MTT assay and [H]^3 thymidine uptake assays, respectively, after 48-hour of co-culture.

The subject of data set [13] is MEC1 cells. The description is as above. The note with it: 20 μM, 48 hours, vs scramble control. The class given is cell-based, human. As to the method:
as §6

Entries after “also recorded” stand apart in the source; their conditions may differ.

`CC(C)C[C@H](NC(=O)[C@H](Cc1ccccc1)NC(=O)c1cnccn1)B(O)O` [bortezomib]: in the data set on NF-κB p65, the “TNF-α-induced NF-κB recruitment to the nucleus, single agents” value is “similarly inhibited”.
Turning to “antimiR-155: fully LNA-modified 8-mer seed-targeting antimiR-155 (3′ATTACGAT 5′ (SEQ ID NO:9)) (fully LNA-modified, chemistry not fully specified; listed 3' to 5')”, the cell proliferation result with BCWM1 cells [1] and in the data set on MEC1 cells [2] was “significant reduction in cell proliferation” in each case. Besides, the cell cytotoxicity entry with BCWM1 cells [3] and with MEC1 cells [4] was “no change in cell cytotoxicity” in each case. Further, the “validated miR-155 target mRNAs (CEBPβ, SMAD5, SOCS1)” value with miR-155 [5] (24 or 48 hours) is “up-regulated; also recorded: upregulated”. Also, the “new miR-155 targets MAFB, SHANK2, SH3PXD2A mRNA” value in the data set with miR-155 [5] (48 hours) was “de-repressed; also recorded: upregulated”. The “mRNA levels of the six miR-155 targets” value in the data set on miR-155 [6] and in the data set with miR-155 [7] was “significant increase in the mRNA levels” in each case. Moreover, the “tumor burden (BLI)” value in the data set on mCherry-Luc+-BCWM1 cells (25 mg/kg loading dose, weekly 5 mg/kg, Day 14 and Day 19, vs scramble control) is listed as “significant reduction in tumor burden; also recorded: significantly decreased tumor burden”. In the data set on mCherry-Luc+-BCWM1 cells (antimiR-155 vs scramble control group), the body weight entry is listed as “No difference in body weight”. For the same molecule, the “CEBPβ protein level in bone marrow and spleen (immunostaining)” value with miR-155 [8] (mouse, in vivo) is given as “de-repression”. For the same molecule, the “MAFB protein level in bone marrow and spleen (immunostaining)” value with miR-155 [8] (mouse, in vivo) is on record as “de-repression”. Also, the “mRNA levels of six miR-155 targets in bone marrow WM CD19+ cells” value with miR-155 [8] (vs scramble control) was “de-repressed”. Moreover, the “protective effect of bone marrow stromal cells on WM tumor cells” value with BCWM1 cells [9] is “overcame the protective effect of bone marrow stromal cells”. For the same molecule, the “tumor cell proliferation in co-culture” value with BCWM1 cells [9] (primary WM bone marrow stromal cells) and in the data set on MEC1 cells [10] was “decreased tumor cell proliferation” in each case. Further, the “cell cytotoxicity on stromal cells” value in data set [11] was “No effect”. For the same molecule, the “tumor cell proliferation, co-culture with miR-155−/− stromal cells” value in the data set on BCWM1 cells [12] and with MEC1 cells [13] was “not significantly” each time. Besides, the “tumor cell proliferation, co-culture with wild-type mice stroma” value in the data set with BCWM1 cells [12] and with MEC1 cells [13] was “decreased tumor cell proliferation” throughout.

Values taken from patent publication US9944991B2, “Compositions and methods for diagnosis, prognosis and treatment of hematological malignancies” (Dana-Farber Cancer Institute, Inc., priority 2012, dated 2018).
